Reference: patent US4473497A, “Pharmacologically active peptides” (Eli Lilly and Company, priority 1983, dated 1984)

Legend:
mouse (Harlan ND4) = test: mouse hot plate test (Mouse Jump test); assay type: in vivo; conditions: subcutaneous injection, 15 minutes after administration, hot plate 55° C., latency to jump
Procedure: In the mouse hot plate test, an upright acrylic cylinder comprising, as its base, a hot plate surface which is maintained at 55° C. is used. A mouse (Harlan ND4) is given, by subcutaneous injection, a predetermined amount of test compound dissolved or suspended in a suitable carrier, and, 15 minutes after administration of the test compound, the mouse is placed on the hot plate surface. The latency in seconds until the mouse jumps from the hot plate surface is measured. […] This must occur in a dose range which produces no motor incoordination or incapacitation. The following Table records ED50 results obtained from this test. By the term "ED50 " is meant that dose which produces analgesia in 50% of the mice tested. Analgesia is defined as a response latency in the presence of test compound that is equal to or greater than the control response latency plus two standard deviations. The percent analgesia data are converted to probits, and the ED50 is calculated by regression analysis of the dose-response data. Each dose response curve must have at least four points, and each point is determined using data from a minimum of ten treated mice and ten control mice.

Cox Standard albino mice = test: mouse writhing test (acetic acid induced); assay type: in vivo; conditions: 0.6% acetic acid i.p.
Procedure: In the mouse writhing test, a writhing response is defined as a contraction of the abdominal musculature followed by extension of the hind limbs. Acetic acid administered intraperitoneally (10 ml./kg.) at a concentration of 0.6% was used to induce a writhing response. Five Cox Standard albino mice weighing 20-22 g. after being fasted overnight were observed simultaneously for the writhing response. Each mouse was used only once. The observation period was ten minutes and started five minutes following administration of the acetic acid. Inhibition of mouse writhing was calculated from the total number of writhes in the control and test compound-treated groups according to the following formula: [formula]
The dose required to reduce the frequency of writhing by 50% is defined as the ED50 and is calculated by "The Use of Regression Line in Reverse", [Brownlee, K. A., Statistical Theory and Methodology in Science and Engineering, 2nd Ed., New York, John Wiley and Sons (1965)].

Substance: L-(N-Methyl)tyrosyl-D-alanylglycine, [N-ethyl-N-(1-benzyl-2-dimethyloxidoamino)ethyl] amide, Diacetate Salt
- ED50 in the Mouse Jump test (dose which produces analgesia in 50% of the mice) (mouse (Harlan ND4)): 0.0025 mg/kg
- ED50 in the Mouse Writhing test (dose reducing frequency of writhing by 50%) (Cox Standard albino mice; oral administration): 5.6 mg/kg
- ED50 in the Mouse Writhing test (dose reducing frequency of writhing by 50%) (Cox Standard albino mice; subcutaneous administration): 0.1 mg/kg
